Measured values from EP0318029B1, “Cyclic amine and pharmacological composition” (Eisai Co., Ltd., priority 1987, dated 1989).

Tested on: cerebral cortex slice
Test: Glutamate liberation inhibitory activity in cerebral cortex slice
Format: cell-based, SD rat
Conditions: 10⁻⁴ M test compound; rat cerebral cortex slice, 30 min pre-incubation, then 50 mM KCl for 60 min; glutamate determined by HPLC, relative to solvent control
Protocol: Glutamate liberation inhibitory activity in cerebral cortex slice
A male SD rat was decapitated, and cerebral cortices on both sides were then extirpated to prepare a slice having a thickness of 750 µm (weight: 10 to 20 mg) with a McIlwain tissue chopper. The slice was incubated in a Krebs-Henseleit liquid containing a test compound in the form of a solution thereof for 30 minutes. Then the slice was incubated in one ml of a Krebs-Henseleit liquid containing 50 mM of KCl and the test compound solution for 60 mins. For control, a solvent was added to a Krebs-Henseleit liquid containing only 50 mM of KCl.
The glutamate liberated in the solution was determined by HPLC, and the glutamate liberation inhibitory activity (%) in 10⁻⁴ M of each test compound solution was calculated by the following equation: (1 -(glutamate in each test compound solution)/(amount of glutamate in control group)) x 100 [formula]

O=C(CN1CCC(Oc2ccc(F)cc2)CC1)c1ccc2ccccc2c1 [compd. of Ex. 3]
glutamate liberation inhibitory activity (%) 1 x 10⁻⁴ M: 49%
